Experimental findings from patent publication US5843755A, “Group of antitumor compounds and method for producing the same” (Ajinomoto Co., Inc., priority 1996, dated 1998) are described below.

The test system of one series is SW948. Nature of the series: Growth-inhibiting action on various cells (MTT), SW948. The class given is cell-based. The conditions noted are these: 72 h, SW948, human colon cancer, 5 × 10^4 cells/ml, 3 days, read-out: IC50 (concentration at which cell proliferation is inhibited by 50%). As for the experimental part: (§1) The proliferation-inhibiting action of FE399 compounds obtained by purification, on various cells was measured under a condition shown below.
(§2) After that, FE399-P1 or FE399-P2 was added thereto at an appropriate concentration, followed by further cultivation for 3 days. However, as for P388 and K562, the FE399 compound group was added immediately after preparation of cell culture liquids. Each of the cultures was added with 10 μl of a solution of MTT (3-(4,5-dimethyl-2-thiazolyl)-2,5-diphenyl-2H-tetrazolium.Br, 5 mg/ml Dulbecco PBS(-)), followed by cultivation at 37° C. for 4 hours in the carbon dioxide gas incubator. After that, each of the cultures was added with 50 μl of 0.01N hydrochloric acid/20% SDS, and then the absorbance was measured at 570 nm by using a microplate reader (reference wavelength: 630 nm).

The test system of the next series is K562T. Nature of the series: Growth-inhibiting action on various cells (MTT), K562T. The class given is cell-based. The conditions noted are these: 72 h, human leukemia, 4 × 10^4 cells/ml, 3 days, read-out: IC50 (concentration at which cell proliferation is inhibited by 50%). As for the experimental part: as §1, §2
In another series the test system is Colon26. Nature of the series: Growth-inhibiting action on various cells (MTT), Colon26. The class given is cell-based. The settings on record: Colon 26, 72 h, Colon26, mouse colon cancer, 5 × 10^4 cells/ml, 3 days, read-out: IC50 (concentration at which cell proliferation is inhibited by 50%). As for the experimental part: as §1, §2
The next series has as its system CHO-K1. Nature of the series: Growth-inhibiting action on various cells (MTT), CHO-K1. The class given is cell-based. The settings on record: Cricetulus griseus, 72 h, CHO-K1, Chinese hamster ovary fibroblast, 1.5 × 10^4 cells/ml, 3 days, read-out: IC50 (concentration at which cell proliferation is inhibited by 50%). Here is the method:
as §1, §2

A further series concerns P388. Nature of the series: Growth-inhibiting action on various cells (MTT), P388. The class given is cell-based. The settings on record: 72 h, P388, mouse leukemia, 2 × 10^4 cells/ml, 3 days, read-out: IC50 (concentration at which cell proliferation is inhibited by 50%). Here is the method: as §1, §2
A further series can be described thus: Solubility. It is filed as physicochemical.
The nature of series [1]: Stability of the tautomers. The class given is physicochemical. The settings on record: tautomeric equilibrium in organic solvent such as acetonitrile, chloroform, acetic acid.
Series [2] concerns Mouse colon cancer cells (colon-26). Nature of the series: Anticancer effect on solid cancer, colon-26 transplanted subcutaneously to CDFI mice. The class given is in vivo. The conditions noted are these: cisplatin 5 mg/kg on 7th, 11th and 15th day. As for the experimental part: Mouse colon cancer cells (colon-26) subcultured in vivo subcutaneously in a CDFI mouse were excised from the subcutaneous portion of the mouse. The cells were minced and transplanted subcutaneously with a trocar to CDFI mice (female, 4 weeks old) so that the concentration was 10 mg/mouse. The day of the transplantation was designated as 0th day. On 7th day, the tumor size and the body weight were measured, and the mice were classified into groups with n=4. The tumor size was calculated as a tumor weight in accordance with the following arithmetic expression. [formula]
FE399 which was obtained by drying up the acetonitrile solution of FE399-1 isolated by the method described in Example 1 under a reduced precondition was administered to the mice described above in accordance with the following schedule. FE399 was administered intraperitoneally in an administration amount of 0.2 mL/mouse. FE399 was dissolved in dimethyl sulfoxide (DMSO) so that the concentration was 100 mg/ml. The concentration was adjusted with physiological saline containing 5% Tween 80 so that the administration amount was 4 mg/kg or 8 mg/kg. […]
The anticancer effect was evaluated on the basis of the tumor enhancement inhibitory ratio (IR) calculated from the tumor weight. IR was determined in accordance with the following arithmetic expression. […]

Values after ≈ are worked out from the molar mass of the structure shown.

Take `CCCC1CCCCCCCC(=O)NC2CSSCC(NC2=O)C(=O)O1` (centres unmarked) [FE399-P1]: the IC50 with SW948 came to 0.15 µg/mL (≈ 0.373 µM); in the series with K562T, 0.31 µg/mL (≈ 0.77 µM); in the series with Colon26 it was 0.4 µg/mL (≈ 0.994 µM); in the series with CHO-K1 it was 0.3 µg/mL (≈ 0.745 µM); with P388, 0.36 µg/mL (≈ 0.894 µM). Also, the Solubility entry in the series “Solubility” (in dimethyl sulfoxide, chloroform, ethyl acetate, methanol, and acetonitrile) is reported as “soluble”; in the series “Solubility” (in pyridine and acetic acid) it was “readily soluble”; in “Solubility” (in water), “scarcely soluble”. The “Stability among the group of the compounds” value in series [1] is given as “relatively stable”.

In the case of `N.N.[Cl][Pt][Cl]` [cisplatin], the “IR (tumor enhancement inhibitory ratio)” value in series [2] (15th day) was 63; in series [2] (21st day), 73.
